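Cells were grown in 96-well plates and exposed to each compound for 48 hours at five concentrations; endpoints were interpolated linearly between bracketing concentrations, or set to the highest concentration if not reached. At the TGI there is no net growth.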
What was measured:
Experiment in all cases: growth of human tumour cells (NCI), 48 h
786-0 renal = system: 786-0 renal
A498 renal = system: A498 renal
A549 NSCLC = system: A549 NSCLC
ACHN renal = system: ACHN renal
BT-549 breast = system: BT-549 breast
CAKI-1 renal = system: CAKI-1 renal
CCRF-CEM leukemia = system: CCRF-CEM leukemia
COLO 205 colon = system: COLO 205 colon
DU-145 prostate = system: DU-145 prostate
EKVX NSCLC = system: EKVX NSCLC
HCC-2998 colon = system: HCC-2998 colon
HCT-116 colon = system: HCT-116 colon
HCT-15 colon = system: HCT-15 colon
HL-60(TB) leukemia = system: HL-60(TB) leukemia
HOP-62 NSCLC = system: HOP-62 NSCLC
HOP-92 NSCLC = system: HOP-92 NSCLC
HS 578T breast = system: HS 578T breast
HT29 colon = system: HT29 colon
IGROV1 ovarian = system: IGROV1 ovarian
K-562 leukemia = system: K-562 leukemia
KM12 colon = system: KM12 colon
LOX IMVI melanoma = system: LOX IMVI melanoma
M14 melanoma = system: M14 melanoma
MALME-3M melanoma = system: MALME-3M melanoma
MCF7 breast = system: MCF7 breast
MDA-MB-231 breast = system: MDA-MB-231 breast
MDA-MB-435 = system: MDA-MB-435
MDA-N = system: MDA-N
MOLT-4 leukemia = system: MOLT-4 leukemia
NCI-H226 lung = system: NCI-H226 lung
NCI-H23 lung = system: NCI-H23 lung
NCI-H460 lung = system: NCI-H460 lung
NCI-H522 lung = system: NCI-H522 lung
NCI/ADR-RES ovarian = system: NCI/ADR-RES ovarian
OVCAR-3 ovarian = system: OVCAR-3 ovarian
OVCAR-4 ovarian = system: OVCAR-4 ovarian
OVCAR-5 ovarian = system: OVCAR-5 ovarian
OVCAR-8 ovarian = system: OVCAR-8 ovarian
PC-3 prostate = system: PC-3 prostate
RPMI-8226 leukemia = system: RPMI-8226 leukemia
RXF 393 renal = system: RXF 393 renal
SF-268 CNS = system: SF-268 CNS
SF-295 CNS = system: SF-295 CNS
SF-539 CNS = system: SF-539 CNS
SK-MEL-2 melanoma = system: SK-MEL-2 melanoma
SK-MEL-28 melanoma = system: SK-MEL-28 melanoma
SK-MEL-5 melanoma = system: SK-MEL-5 melanoma
SK-OV-3 ovarian = system: SK-OV-3 ovarian
SN12C renal = system: SN12C renal
SNB-19 CNS = system: SNB-19 CNS
SNB-75 CNS = system: SNB-75 CNS
SR leukemia = system: SR leukemia
SW-620 colon = system: SW-620 colon
T-47D breast = system: T-47D breast
TK-10 renal = system: TK-10 renal
U251 CNS = system: U251 CNS
UACC-257 melanoma = system: UACC-257 melanoma
UACC-62 melanoma = system: UACC-62 melanoma
UO-31 renal = system: UO-31 renal

## CC(C)C1(O)C(=O)N(c2c(F)c(F)c(F)c(F)c2F)C(=S)N1CCSc1ccccc1 (configuration not stated)
786-0 renal
  TGI: 33.3 µM
A498 renal
  TGI: 29.8 µM
A549 NSCLC
  TGI: 29.2 µM
ACHN renal
  TGI: 31.3 µM
BT-549 breast
  TGI: 30.4 µM
CAKI-1 renal
  TGI: 24.7 µM
CCRF-CEM leukemia
  TGI: 31.7 µM
COLO 205 colon
  TGI: 32.9 µM
DU-145 prostate
  TGI: 30.9 µM
EKVX NSCLC
  TGI: 33.5 µM
HCC-2998 colon
  TGI: 34.8 µM
HCT-116 colon
  TGI: 32.1 µM
HCT-15 colon
  TGI: 33 µM
HL-60(TB) leukemia
  TGI: 29.2 µM
HOP-62 NSCLC
  TGI: 34.6 µM
HOP-92 NSCLC
  TGI: 22.2 µM
HS 578T breast
  TGI: 39.7 µM
HT29 colon
  TGI: 32.5 µM
IGROV1 ovarian
  TGI: 31.2 µM
K-562 leukemia
  TGI: 26.7 µM
KM12 colon
  TGI: 31.5 µM
LOX IMVI melanoma
  TGI: 30.1 µM
M14 melanoma
  TGI: 31.9 µM
MALME-3M melanoma
  TGI: 31.6 µM
MCF7 breast
  TGI: 31.7 µM
MDA-MB-231 breast
  TGI: 26.4 µM
MDA-MB-435
  TGI: 32.8 µM
MDA-N
  TGI: 31.3 µM
MOLT-4 leukemia
  TGI: 30.7 µM
NCI-H226 lung
  TGI: 38.7 µM
NCI-H23 lung
  TGI: 32.9 µM
NCI-H460 lung
  TGI: 38.4 µM
NCI-H522 lung
  TGI: 30.5 µM
NCI/ADR-RES ovarian
  TGI: 31 µM
OVCAR-3 ovarian
  TGI: 30.1 µM
OVCAR-4 ovarian
  TGI: 29.1 µM
OVCAR-5 ovarian
  TGI: 33 µM
OVCAR-8 ovarian
  TGI: 33.8 µM
PC-3 prostate
  TGI: 29.2 µM
RPMI-8226 leukemia
  TGI: 28.7 µM
RXF 393 renal
  TGI: 33.1 µM
SF-268 CNS
  TGI: 33.2 µM
SF-295 CNS
  TGI: 32.1 µM
SF-539 CNS
  TGI: 35.1 µM
SK-MEL-2 melanoma
  TGI: 32.5 µM
SK-MEL-28 melanoma
  TGI: 30.3 µM
SK-MEL-5 melanoma
  TGI: 32.7 µM
SK-OV-3 ovarian
  TGI: 31 µM
SN12C renal
  TGI: 29.3 µM
SNB-19 CNS
  TGI: 31.9 µM
SNB-75 CNS
  TGI: 31.1 µM
SR leukemia
  TGI: 43 µM
SW-620 colon
  TGI: 30.3 µM
T-47D breast
  TGI: 33.6 µM
TK-10 renal
  TGI: 27.9 µM
U251 CNS
  TGI: 32.1 µM
UACC-257 melanoma
  TGI: 32.4 µM
UACC-62 melanoma
  TGI: 30.6 µM
UO-31 renal
  TGI: 28.9 µM

## N/C(=N\Nc1ccc(S(N)(=O)=O)cc1)c1cnccn1
786-0 renal
  TGI: > 100 µM
A498 renal
  TGI: > 100 µM
A549 NSCLC
  TGI: > 100 µM
ACHN renal
  TGI: > 100 µM
BT-549 breast
  TGI: > 100 µM
CAKI-1 renal
  TGI: > 100 µM
CCRF-CEM leukemia
  TGI: > 100 µM
COLO 205 colon
  TGI: > 100 µM
DU-145 prostate
  TGI: > 100 µM
EKVX NSCLC
  TGI: > 100 µM
HCC-2998 colon
  TGI: > 100 µM
HCT-116 colon
  TGI: > 100 µM
HCT-15 colon
  TGI: > 100 µM
HL-60(TB) leukemia
  TGI: > 100 µM
HOP-62 NSCLC
  TGI: > 100 µM
HOP-92 NSCLC
  TGI: > 100 µM
HS 578T breast
  TGI: > 100 µM
HT29 colon
  TGI: > 100 µM
IGROV1 ovarian
  TGI: > 100 µM
K-562 leukemia
  TGI: > 100 µM
KM12 colon
  TGI: > 100 µM
LOX IMVI melanoma
  TGI: > 100 µM
M14 melanoma
  TGI: > 100 µM
MALME-3M melanoma
  TGI: > 100 µM
MCF7 breast
  TGI: > 100 µM
MDA-MB-231 breast
  TGI: > 100 µM
MDA-MB-435
  TGI: > 100 µM
MDA-N
  TGI: > 100 µM
MOLT-4 leukemia
  TGI: > 100 µM
NCI-H226 lung
  TGI: > 100 µM
NCI-H23 lung
  TGI: > 100 µM
NCI-H460 lung
  TGI: > 100 µM
NCI-H522 lung
  TGI: > 100 µM
NCI/ADR-RES ovarian
  TGI: > 100 µM
OVCAR-3 ovarian
  TGI: > 100 µM
OVCAR-4 ovarian
  TGI: > 100 µM
OVCAR-5 ovarian
  TGI: > 100 µM
OVCAR-8 ovarian
  TGI: > 100 µM
PC-3 prostate
  TGI: > 100 µM
RPMI-8226 leukemia
  TGI: > 100 µM
RXF 393 renal
  TGI: > 100 µM
SF-268 CNS
  TGI: > 100 µM
SF-295 CNS
  TGI: > 100 µM
SK-MEL-2 melanoma
  TGI: > 100 µM
SK-MEL-28 melanoma
  TGI: > 100 µM
SK-MEL-5 melanoma
  TGI: > 100 µM
SK-OV-3 ovarian
  TGI: > 100 µM
SN12C renal
  TGI: > 100 µM
SNB-19 CNS
  TGI: > 100 µM
SNB-75 CNS
  TGI: > 100 µM
SR leukemia
  TGI: > 100 µM
SW-620 colon
  TGI: > 100 µM
T-47D breast
  TGI: > 100 µM
TK-10 renal
  TGI: > 100 µM
U251 CNS
  TGI: > 100 µM
UACC-257 melanoma
  TGI: > 100 µM
UACC-62 melanoma
  TGI: > 100 µM
UO-31 renal
  TGI: > 100 µM

Source: PubChem BioAssay (NCI)
